PMC12030062, “From In Vitro Cytotoxicity to In Vivo Zebrafish Assays: A Study on 3,3-Dichloro β-, γ- and δ-Lactams and Their Biological Activity Profiles” (Pharmaceuticals, 2025)
Values after ≈ are worked out from the molar mass of the structure shown.

Experiments:
[1] = test system: A431 cell line (squamous cell carcinoma); assay: Cell viability, NRU assay, A431; type: cell-based, human
Protocol: Two different endpoints, 3-(4,5-dimethyl-2-thiazolyl)-2,5-diphenyltetrazolium bromide (MTT) and neutral red uptake (NRU), were used to assess differences in cell-induced cytotoxicity. […] In addition, NRU evaluates the interaction of these drugs with the plasmatic membrane. Cell responses were determined from the MTT [16] and NRU [17] assays, using the two proposed cell lines. Cytotoxicity assays were performed at concentrations equal to 80 and 250 µg/mL. The IC50 value, referring to the half-maximal inhibitory concentration, was determined as a key parameter in cytotoxicity studies (Table 1). It plays a crucial role in evaluating cell viability and assessing cellular responses to various drugs or toxins. For cases where IC50 values were below 80 µg/mL, additional studies at lower concentrations were conducted to accurately determine these values. […] The selectivity index (SI), used as a measurement of action against the tumor cell line in comparison with a normal cell line, was also included.
• In Vitro Assay Using Human Erythrocytes • - Acquisition and Extraction of the Erythrocytes Human blood samples were obtained from the Banc de Sang i Teixits de Barcelona (Spain) from the Catalan Department of Health. Blood was deposited in tubes with the anticoagulant EDTA-K3. Blood samples were centrifuged at 3000 rpm and 4 °C for 10 min (Megafuge 2.0 R. Heraeus Instruments, Hanau, Germany) to induce sedimentation. Plasma was extracted with a Pasteur pipette. Next, the residual pellet was washed with PBS at pH 7.4. This procedure was repeated three times to remove residual leukocytes and platelets and to concentrate the erythrocytes. Following the last wash, the erythrocyte suspension was diluted (1:1) in PBS at pH 7.4 to obtain a suitable erythrocyte suspension (cell density of 8 × 10^9 cell/mL). • - Hemolysis Assay The hemolysis assay determined the capability of different compounds to induce the hemolysis of the erythrocyte membrane. Stock solutions of each compound at 1 mg/mL in PBS at pH 7.4 were prepared. Different volumes (10–80 μL) were placed in polystyrene tubes, and an aliquot of 25 µL of the erythrocyte suspensions was added to each tube. The final volume was 1 mL. The tubes were incubated at room temperature under rotatory conditions. Then, the tubes were centrifuged at 10,000 rpm for 5 min. The supernatants’ absorbance at 540 nm (Shimadzu UV-160A, Shimadzu, Duisburg, Germany) was compared with that of the positive (erythrocytes hemolyzed with distilled water) and negative (erythrocyte suspension in PBS at pH 7.4) controls. The degree of hemolysis was determined using the following equation: Hemolysis (%) = 100 × (Abs − Abs0)/(Abs100 − Abs0) where Abs, Abs0, and Abs100 are the absorbance of the test samples, of the suspension treated with isotonic phosphate–buffered saline (PBS), and of the suspension of complete hemolysis treated with distilled water, respectively. • In Vitro Essay Using Cell Cultures The murine Swiss albino fibroblasts (3T3) and the squamous cell carcinoma (A431) cell lines were obtained from Celltec UB. Cells were grown in DMEM medium (4.5 g/L glucose) supplemented with 10% (v/v) FBS, 2 mM L-glutamine, 100 U/mL penicillin, and 100 µg/mL streptomycin at 37 °C with 5% CO2. Cells were routinely cultured in 75 cm^2 culture flasks and were trypsinized using trypsin–EDTA when the cells reached approximately 80% confluence. The trypan blue assay, which allows for the direct identification and enumeration of the live (unstained) and dead (blue) cells in the cell population, was used to evaluate the viability of the cells in the cell suspension obtained. • - Cell Viability Assays Cell lines of 3T3 (1 × 10^5 cells/mL) and A431 (5 × 10^4 cells/mL) were grown at defined densities in the 60 central wells of a 96-well plate. The cells were incubated for 24 h in 5% CO2 at 37 °C. […]

Zebrafish embryos = assay: Fish embryo acute toxicity (FET): lethality and dysmorphogenesis; type: in vivo
Protocol: (§1) Zebrafish provide a widely used vertebrate model for cost-effective, in vivo whole-organism screening.
(§2) (2 mM CaCl2•2 H2O; 0.5 mM MgSO4•7 H2O; 0.75 mM NaHCO3; 0.07 mM KCl). The fish were maintained at a temperature of 26 ± 1 °C on a 14-h light and 10-h dark cycle and were fed daily in the morning with Artemia salina, then with commercial flake food in the afternoon (SDS400, Special Diet Services, Dietex, France). For optimal Zebrafish reproduction, we used animals between 6 months and a year old. The day before the eggs were needed, males and females were placed in a breeding tank with plants at a 2:1 male-to-female ratio (usually using 8 males and 4 females in a big breeding tank). The following morning, eggs were collected 30 min after the lights were turned on. […] Fertilized, non-coagulated, and synchronously divided eggs were selected using a stereomicroscope (Motic SMZ168, Motic Hong Kong Ltd., Hong Kong, China) and transferred to 6-well plates (10 embryos/well). The embryos were exposed to freshly prepared tested concentrations of the compound in 0.3× Danieau’s solution. The chemical stock solution was prepared in 100% dimethylsulfoxide (DMSO) and subsequently diluted in Danieau’s buffer with a final DMSO concentration of 1% (v/v). Testing was carried out using five concentrations with a negative control of solvent with 1% of DMSO. Embryos were incubated at 27 ± 1 °C with a light:dark cycle of 14:10 h until 72 h post-fertilization (hpf) under semi-static conditions, as exposure solutions were renewed with freshly prepared solutions every 24 h. • Lethality and dysmorphogenesis evaluation At 24, 48, and 72 hpf, the embryos were observed under a stereomicroscope to assess lethality. […] At the end of the test, dysmorphogenesis was evaluated in the live embryos only. The average lethality and dysmorphogenesis were calculated for 10 embryos per concentration, followed by averaging the results of at least three independent experiments. […] Subsequently, the TER test was conducted according to the protocol described by Guzman et al.. […] The distance was averaged and converted from pixels to millimeters. This assay was performed only on larvae from concentration groups where both the lethality and dysmorphogenesis were less than 20%. Six larvae per concentration group were evaluated in at least three independent experiments. • Statistical analysis Statistical analysis was performed using GraphPad Prism v.10.0.2. The TER test was analyzed using a one-way ANOVA and a post hoc multiple-comparison Dunnett test. The significance threshold was established at p < 0.05.

[2] = as above; type: in vivo; conditions: zebrafish, in vivo, exposure 2 to 72 hpf, read at 72 hpf
Protocol: as §1, §2

Q: With `CC(C)(C)N1C(=O)C(Cl)(Cl)C1c1ccccc1` (stereo not drawn) [Compound 1] as the molecule, how does the “IC50 (NRU) A431” value ([1]; 24 h incubation, NRU endpoint, A431) read?
A: 35.74 ± 3.24 µg/mL (≈ 131 µM)

Q: And the IC50 ([1]; Homo sapiens, A-431, 24 h, 24 h incubation, NRU endpoint, A431)?
A: 35 µg/mL (≈ 129 µM)

Q: What about the “SI (NRU), selectivity index” value ([1]; SI = IC50 (3T3)/IC50 (A431), NRU) of the same molecule?
A: >>6.99

Q: And the EC50 (Zebrafish embryos; Danio rerio, read-out: EC50 (dysmorphogenesis))?
A: 5.23 µg/mL (≈ 19.2 µM)

Q: And the “teratogenic index (TI)” value (Zebrafish embryos; TI = LC50/EC50)?
A: 2.85

Q: And the teratogenicity classification (Zebrafish embryos; TI > 2)?
A: potential teratogen

Q: And the morphological abnormalities (Zebrafish embryos; embryos exposed 2 to 72 hpf)?
A: pericardial edema, large yolk sacs, and flexion abnormalities

Q: What about the “LC50 (lethality)” value (Zebrafish embryos; exposure 2 to 72 hpf, read at 72 hpf) of the same molecule?
A: 14.9 µg/mL (≈ 54.7 µM)

Q: What about the LC50 [2] of the same molecule?
A: 14.9 µg/mL (≈ 54.8 µM)
